According to patent US9999636B2, “Insulin-mimetics as therapeutic adjuncts for bone regeneration” (Rutgers, The State University of New Jersey, priority 2010, dated 2018):
Marks after values point to notes of the source that are not given here.

Key:
[1] = tested on: closed mid-diaphyseal femur fracture; assay: Torsional mechanical testing of fractured femora, local ZnCl2 with or without CaSO4 carrier; assay type: in vivo, BB Wistar rat; parameters: Percent Effective Shear Stress: scale not given: direction of the effect not stated beside the values; conditions: for mode of torsional failure: femurs harvested 4 weeks post-surgery (FIG. 2)
Description: In addition to the biomechanical parameters determined through torsional testing, the mode of failure can also provide substantial information. The mode of torsional failure as determined by gross inspection provided an indication as to the extent of healing. A spiral failure in the mid-diaphyseal region indicated a complete union while a transverse failure through the fracture site indicated a nonunion. A combination spiral/transverse failure indicated a partial union (FIG. 2).
To prepare the ZnCl2/CaSO4 mixture, CaSO4 (2 g) were placed in glass vials. The vials were placed in an autoclave and sterilized […] in a dry cycle. CaSO4 powder (0.8 g) was mixed with 400 μl of saline or 400 μl of ZnCl2 solution (1.0 mg/kg) for one minute at room temperature. The mixture was packed into the barrel of a 1 cc sterile syringe and pushed down into the open orifice of the syringe barrel by insertion of the syringe plunger. After attaching an 18-gauge sterile needle to the syringe barrel, 0.1 ml volume of the mixture was directly injected into the rat femoral canal (non-diabetic BB Wistar rat) prior to Kirschner wire insertion and fracture.

[2] = 10.0 mg/kg local, no carrier
Description: Diabetic Resistance (DR) BB Wistar rats used in the study were obtained from a breeding colony at UMDNJ-New Jersey Medical School (NJMS). The rats were housed under controlled environmental conditions and fed ad libitum. All research protocols were approved by the Institutional Animal Care and Use Committee at University of Medicine and Dentistry of New Jersey-New Jersey Medical School.
Doses of ZnCl2 were not based on each animal's body weight, but on a lower theoretically tolerable dose for a 290-gram BB Wistar rat, which would not elicit heavy metal poisoning or behavioral changes. This weight is over 50 grams lower than the average weight of non-diabetic BB Wistar rats at an age of approximately 90 days (the age of investigation in this study). A 0.1 ml volume of the ZnCl2 solution was administered locally via a single injection into the marrow space for each dose examined.

[3] = tested on: posterolateral intertransverse lumbar fusion L4-L5; assay: Radiographic grading of posterolateral lumbar spinal fusion; assay type: in vivo, Sprague-Dawley rat; conditions: n = 10, eight weeks
[4] = tested on: closed mid-diaphyseal femur fracture; conditions: four weeks post-fracture
Description: X-rays are taken at two-week intervals to the day of euthanasia. After euthanasia x-rays are taken as well. To take x-rays, animals will be given a half dose of anesthesia. All groups will be monitored closely for four days after surgery for infection, and the ability to ambulate freely.

[5] = high dose 1.0 mg/kg Calcium Sulfate pellet, 1 mg/kg
[6] = low dose 0.5 mg/kg Calcium Sulfate pellet, listed as zinc, 0.5 mg/kg

In the case of `[Cl-].[Cl-].[Zn+2]` [ZnCl2, Zinc chloride], the “mode of torsional failure” value ([1]; 1.0 mg/kg) was “spiral fracture indicative of healing”, the “mode of torsional failure” value ([1]; 3.0 mg/kg) was “spiral fracture indicative of healing” and the “Percent Effective Shear Stress” value ([1]; 10.0 mg/kg, no carrier, 4 weeks post-fracture, normalized to contralateral (intact) femur) was 27 ± 11%. For the same compound, the “time in which fracture healing resolved” value ([1]; applied directly to fracture site, instead of average eight to ten weeks in standard rat femur fracture model) was “four to five weeks” and the “Blood Glucose 12 Hours Post-Surgery” value [2] was 87.7 ± 8.5 ^a mg/dl.

For `[Zn]` [Zn], the “Radiographs: number graded A = solid fusion mass bilaterally” value [3, 5] was 7, the “Radiographs: number graded D = Graft resorption” value [3, 5] was 0 and the “Radiographs: number graded A = solid fusion mass bilaterally” value [3, 6] was 7/10. The “Radiographs: number graded D = Graft resorption” value [3, 6] was 0/10.

For manganese chloride [MnCl2], the “mineralized tissue on radiographs” value ([4]; 0.25 mg/kg, vs saline controls) was “increased mineralized tissue” and the union on radiographs ([4]; saline control had no evidence of union) was “demonstrated union at the subperiosteal bony area and at the callus”.
